Experimental data from patent publication US12410208B2, “(2-acetamidyl)thio-beta-D-galactopyranoside derivatives” (Idorsia Pharmaceuticals Ltd, priority 2020, dated 2025).
Read-outs that look alike come from different tables or passages of the source. Each block holds one compound with its values, some of them ahead of it.

Tests used:
[1] = target: biotinylated human Gal-3 (hGal-3) (Homo sapiens, UniProt P17931); assay: Competitive binding assay: biotinylated hGal-3 binding to microplate-adsorbed asialofetuin (ASF), spectrophotometric
Chain of biotinylated human Gal-3 (hGal-3) (P17931 whole entry): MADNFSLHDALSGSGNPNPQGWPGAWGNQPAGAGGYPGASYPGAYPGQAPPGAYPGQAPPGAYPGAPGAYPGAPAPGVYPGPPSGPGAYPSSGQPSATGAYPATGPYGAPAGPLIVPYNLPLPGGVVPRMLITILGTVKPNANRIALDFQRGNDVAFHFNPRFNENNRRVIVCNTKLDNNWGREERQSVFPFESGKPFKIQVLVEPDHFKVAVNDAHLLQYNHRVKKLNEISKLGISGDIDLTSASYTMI
Experimental: If not explicitly mentioned otherwise, the inhibition data refer to the binding of biotinylated human Gal-3 (hGal-3).
(§1) Biological Assay Evaluation of Compound Inhibitory Activity (IC50)
The inhibitory activity of compounds is determined in competitive binding assays.
Briefly, compounds are serially diluted in DMSO (working dilutions).
(§2) Plates are incubated for 3 hours at 4° C., then washed with cold assay buffer (3×50 uL), incubated for 1 hour with 25 μL/well of a streptavidin-peroxidase solution (diluted in assay buffer to 80 ng/mL) at 4° C., followed by further washing steps with assay buffer (3×50 uL). Finally, 25 μL/well of ABTS substrate is added.
(§3) The calculated IC50 values may fluctuate depending on the daily assay performance. Fluctuations of this kind are known to those skilled in the art. IC50 values from several measurements are given as mean values.

[2] = target: human Gal-1 (hGal-1) (Homo sapiens, UniProt P09382); assay: Competitive binding assay: biotinylated hGal-1 binding to microplate-adsorbed asialofetuin (ASF), spectrophotometric; details: hGal-1 binding to asialofetuin; Table 15; R and S epimers of selected Examples also listed; read-out: IC50 (Galectin-1 inhibition)
Chain of human Gal-1 (hGal-1) (P09382 whole entry): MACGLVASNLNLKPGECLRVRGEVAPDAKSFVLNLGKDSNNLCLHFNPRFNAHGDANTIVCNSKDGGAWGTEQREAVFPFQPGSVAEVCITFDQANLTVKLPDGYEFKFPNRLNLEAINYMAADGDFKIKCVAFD
Experimental: as §1
The inhibitory activity of compounds is determined in competitive binding assays. This spectrophotometric assay measures the binding of biotinylated human Gal-3 (hGal-3) or human Gal-1 (hGal-1), respectively, to a microplate-adsorbed glycoprotein, asialofetuin (ASF) (Proc Natl Acad Sci USA. 2013 Mar. 26; 110(13):5052-7.).
Briefly, compounds are serially diluted in DMSO (working dilutions). ASF-coated 384well plates are supplemented with 22.8 μL/well of biotinylated hGal-3 or hGal-1 in assay buffer (i.e. 300-1000 ng/mL biotinylated hGal-3 or hGal-1) to which 1.2 μL of compound working dilutions are added and mixed.
as §2, §3

[3] = Table 6, hGal-3, read-out: IC50 (Gal-3 inhibition)
[4] = Gal-3 inhibition, Table 4, read-out: IC50
[5] = Table 12, hGal-3, read-out: IC50 (Gal-3 inhibition)
[6] = Gal-3 inhibition, Table 7, read-out: IC50
[7] = Table 11, hGal-3, read-out: IC50 (Gal-3 inhibition)

IC50 [1, 5]: 390 nM
Compound: CO[C@@H]1[C@@H](n2cc(-c3cc(F)c(F)c(F)c3)nn2)[C@@H](O)[C@@H](CO)O[C@H]1SC(C(=O)NC1CCC(C)(C)CC1)C1(O)CCC(F)(F)CC1 (stereo partly drawn) [Example 2.44.255.I, 2-(4,4-Difluoro-1-hydroxycyclohexyl)-N-(4,4-dimethylcyclohexyl)-2-(((2S,3R,4S,5R,6R)-5-hydroxy-6-(hydroxymethyl)-3-methoxy-4-(4-(3,4,5-trifluorophenyl)-1H-1,2,3-triazol-1-yl)tetrahydro-2H-pyran-2-yl)thio)acetamide]

IC50 [2]: 830 nM
Compound: CO[C@@H]1[C@@H](n2cc(-c3cc(F)c(F)c(F)c3)nn2)[C@@H](O)[C@@H](CO)O[C@H]1SC(C(=O)NC1CCC(C)(C)CC1)C1(O)CCC(F)(F)CC1 (stereo partly drawn) [Example 2.44.255.I., 2-(4,4-Difluoro-1-hydroxycyclohexyl)-N-(4,4-dimethylcyclohexyl)-2-(((2S,3R,4S,5R,6R)-5-hydroxy-6-(hydroxymethyl)-3-methoxy-4-(4-(3,4,5-trifluorophenyl)-1H-1,2,3-triazol-1-yl)tetrahydro-2H-pyran-2-yl)thio)acetamide]

IC50 [1, 6]: 120 nM
Compound: CCC(O)C(S[C@@H]1O[C@H](CO)[C@H](O)[C@H](n2cc(-c3cc(F)c(F)c(F)c3)nn2)[C@H]1O)C(=O)N(C)CC1CC1 (stereo partly drawn) [Example 2.60.218., N-(Cyclopropylmethyl)-2-(((2S,3R,4S,5R,6R)-3,5-dihydroxy-6-(hydroxymethyl)-4-(4-(3,4,5-trifluorophenyl)-1H-1,2,3-triazol-1-yl)tetrahydro-2H-pyran-2-yl)thio)-3-hydroxy-N-methylpentanamide]

IC50 [2]: 200 nM
Compound: CCC(O)C(S[C@@H]1O[C@H](CO)[C@H](O)[C@H](n2cc(-c3cc(F)c(F)c(F)c3)nn2)[C@H]1O)C(=O)N(C)CC1CC1 (stereo partly shown) [Example 2.60.218]

IC50 [1, 6]: 220 nM
Compound: CCN(C)C(=O)C(S[C@@H]1O[C@H](CO)[C@H](O)[C@H](n2cc(-c3cc(F)c(F)c(F)c3)nn2)[C@H]1O)C(O)Cc1ccccc1 (stereo partly drawn) [Example 2.64.203., 2-(((2S,3R,4S,5R,6R)-3,5-Dihydroxy-6-(hydroxymethyl)-4-(4-(3,4,5-trifluorophenyl)-1H-1,2,3-triazol-1-yl)tetrahydro-2H-pyran-2-yl)thio)-N-ethyl-3-hydroxy-N-methyl-4-phenylbutanamide]

IC50 [2]: 1460 nM
Compound: CCN(C)C(=O)C(S[C@@H]1O[C@H](CO)[C@H](O)[C@H](n2cc(-c3cc(F)c(F)c(F)c3)nn2)[C@H]1O)C(O)Cc1ccccc1 (stereo partly shown) [Example 2.64.203]

IC50 [1, 7]: 230 nM
Compound: Cc1cc(-c2cn([C@H]3[C@@H](O)[C@@H](CO)O[C@@H](S[C@@H](C(=O)N(C)C4CC4)C4(O)CCC(F)(F)CC4)[C@@H]3O)nn2)cnc1F [Example 21.44.221R, (R)-N-Cyclopropyl-2-(4,4-difluoro-1-hydroxycyclohexyl)-2-(((2S,3R,4S,5R,6R)-4-(4-(6-fluoro-5-methylpyridin-3-yl)-1H-1,2,3-triazol-1-yl)-3,5-dihydroxy-6-(hydroxymethyl)tetrahydro-2H-pyran-2-yl)thio)-N-methylacetamide]

IC50 [1, 7]: 50 nM
Compound: Cc1cc(-c2cn([C@H]3[C@@H](O)[C@@H](CO)O[C@@H](S[C@H](C(=O)N(C)C4CC4)C4(O)CCC(F)(F)CC4)[C@@H]3O)nn2)cnc1F [Example 21.44.221S, (S)-N-Cyclopropyl-2-(4,4-difluoro-1-hydroxycyclohexyl)-2-(((2S,3R,4S,5R,6R)-4-(4-(6-fluoro-5-methylpyridin-3-yl)-1H-1,2,3-triazol-1-yl)-3,5-dihydroxy-6-(hydroxymethyl)tetrahydro-2H-pyran-2-yl)thio)-N-methylacetamide]

The remaining lines, values behind:

Compound: CCN(C)C(=O)[C@H](S[C@@H]1O[C@H](CO)[C@H](O)[C@H](n2cc(-c3cc(F)c(F)c(F)c3)nn2)[C@H]1O)C(C)(C)O [Example 2.31.203R., (R)-2-(((2S,3R,4S,5R,6R)-3,5-Dihydroxy-6-(hydroxymethyl)-4-(4-(3,4,5-trifluorophenyl)-1H-1,2,3-triazol-1-yl)tetrahydro-2H-pyran-2-yl)thio)-N-ethyl-3-hydroxy-N,3-dimethylbutanamide]
IC50 ([1]; Gal-3 inhibition, Table 3, read-out: IC50): 3880 nM

Compound: CC1CN(C(=O)[C@@H](S[C@@H]2O[C@H](CO)[C@H](O)[C@H](n3cc(-c4cc(F)c(F)c(F)c4)nn3)[C@H]2O)C(C)(C)O)C1 [Example 2.31.205S., (S)-2-(((2S,3R,4S,5R,6R)-3,5-dihydroxy-6-(hydroxymethyl)-4-(4-(3,4,5-trifluorophenyl)-1H-1,2,3-triazol-1-yl)tetrahydro-2H-pyran-2-yl)thio)-3-hydroxy-3-methyl-1-(3-methylazetidin-1-yl)butan-1-one]
IC50 [2]: 820 nM

Compound: CC(C)(O)[C@@H](S[C@@H]1O[C@H](CO)[C@H](O)[C@H](n2cc(-c3cc(F)c(F)c(F)c3)nn2)[C@H]1O)C(=O)N1CCCC1 [Example 2.31.211R, (R)-2-(((2S,3R,4S,5R,6R)-3,5-Dihydroxy-6-(hydroxymethyl)-4-(4-(3,4,5-trifluorophenyl)-1H-1,2,3-triazol-1-yl)tetrahydro-2H-pyran-2-yl)thio)-3-hydroxy-3-methyl-1-(pyrrolidin-1-yl)butan-1-one]
IC50 [2]: 2150 nM

Compound: CC(C)(O)[C@@H](S[C@@H]1O[C@H](CO)[C@H](O)[C@H](n2cc(-c3cc(F)c(F)c(F)c3)nn2)[C@H]1O)C(=O)N1CCCC1 [Example 2.31.211R., (R)-2-(((2S,3R,4S,5R,6R)-3,5-Dihydroxy-6-(hydroxymethyl)-4-(4-(3,4,5-trifluorophenyl)-1H-1,2,3-triazol-1-yl)tetrahydro-2H-pyran-2-yl)thio)-3-hydroxy-3-methyl-1-(pyrrolidin-1-yl)butan-1-one]
IC50 [1, 3]: 310 nM

Compound: CC(C)(O)[C@H](S[C@@H]1O[C@H](CO)[C@H](O)[C@H](n2cc(-c3cc(F)c(F)c(F)c3)nn2)[C@H]1O)C(=O)N1CCCC1 [Example 2.31.211S, (S)-2-(((2S,3R,4S,5R,6R)-3,5-Dihydroxy-6-(hydroxymethyl)-4-(4-(3,4,5-trifluorophenyl)-1H-1,2,3-triazol-1-yl)tetrahydro-2H-pyran-2-yl)thio)-3-hydroxy-3-methyl-1-(pyrrolidin-1-yl)butan-1-one]
IC50 [1, 3]: 80 nM

Compound: CC(C)(O)[C@H](S[C@@H]1O[C@H](CO)[C@H](O)[C@H](n2cc(-c3cc(F)c(F)c(F)c3)nn2)[C@H]1O)C(=O)N1CCCC1 [Example 2.31.211S., (S)-2-(((2S,3R,4S,5R,6R)-3,5-Dihydroxy-6-(hydroxymethyl)-4-(4-(3,4,5-trifluorophenyl)-1H-1,2,3-triazol-1-yl)tetrahydro-2H-pyran-2-yl)thio)-3-hydroxy-3-methyl-1-(pyrrolidin-1-yl)butan-1-one]
IC50 [2]: 530 nM

Compound: O=C([C@H](S[C@@H]1O[C@H](CO)[C@H](O)[C@H](n2cc(-c3cc(F)c(F)c(F)c3)nn2)[C@H]1O)C1(O)CCOCC1)N1CCc2ccccc21 [Example 2.41.209R., (R)-2-(((2S,3R,4S,5R,6R)-3,5-Dihydroxy-6-(hydroxymethyl)-4-(4-(3,4,5-trifluorophenyl)-1H-1,2,3-triazol-1-yl)tetrahydro-2H-pyran-2-yl)thio)-2-(4-hydroxytetrahydro-2H-pyran-4-yl)-1-(indolin-1-yl)ethan-1-one]
IC50 [1, 4]: 1310 nM

Compound: CN(CCC1CCOCC1)C(=O)[C@H](S[C@@H]1O[C@H](CO)[C@H](O)[C@H](n2cc(-c3cc(F)c(F)c(F)c3)nn2)[C@H]1O)C1(O)CCOCC1 [Example 2.41.216R., (R)-2-(((2S,3R,4S,5R,6R)-3,5-Dihydroxy-6-(hydroxymethyl)-4-(4-(3,4,5-trifluorophenyl)-1H-1,2,3-triazol-1-yl)tetrahydro-2H-pyran-2-yl)thio)-2-(4-hydroxytetrahydro-2H-pyran-4-yl)-N-methyl-N-(2-(tetrahydro-2H-pyran-4-yl)ethyl)acetamide]
IC50 [1, 4]: 1530 nM

Compound: CO[C@@H]1[C@@H](n2cc(-c3cc(F)c(F)c(F)c3)nn2)[C@@H](O)[C@@H](CO)O[C@H]1SC(C(=O)N(C)C1CC(F)(F)C1)C1(O)CCC(F)(F)CC1 (stereo partly drawn) [Example 2.44.237.I., 2-(4,4-Difluoro-1-hydroxycyclohexyl)-N-(3,3-difluorocyclobutyl)-2-(((2S,3R,4S,5R,6R)-5-hydroxy-6-(hydroxymethyl)-3-methoxy-4-(4-(3,4,5-trifluorophenyl)-1H-1,2,3-triazol-1-yl)tetrahydro-2H-pyran-2-yl)thio)-N-methylacetamide]
IC50 [1, 5]: 90 nM

Compound: CCN(C(=O)C(S[C@@H]1O[C@H](CO)[C@H](O)[C@H](n2cc(-c3cc(F)c(F)c(F)c3)nn2)[C@H]1OC)C1(O)CCC(F)(F)CC1)C1CC1 (stereo partly shown) [Example 2.44.238.I.]
IC50 ([1]; Table 10, hGal-3, read-out: IC50 (Gal-3 inhibition)): 40 nM

Compound: (R)-2-(4,4-Difluoro-1-hydroxycyclohexyl)-2-(((2S,3R,4S,5R,6R)-3,5-dihydroxy-6-(hydroxymethyl)-4-(4-(3,4,5-trifluorophenyl)-1H-1,2,3-triazol-1-yl)tetrahydro-2H-pyran-2-yl)thio)-1-(piperidin-1-yl)ethan-1-one [Example 2.44.208R.]
IC50 ([1]; Gal-3 inhibition, Table 5, read-out: IC50): 3360 nM
